Source: patent US7078537B2, “Phenylalkyl diamine and amide analogs” (SK Corporation, priority 2001, dated 2006)
Read-outs that look alike come from different tables or passages of the source.

Assays:
[1] = target: T1, sigma-2 receptor (Cavia porcellus, UniProt H0V073); assay: Sigma-2 binding assay ([3H]DTG in the presence of (+)-SKF10047); settings: guinea pig brain membranes, read-out: Sigma 2 Inhib. %
T1 construct: their whole brains (without cerebellum) were rapidly removed and homogenized; from tissue; host or cells: guinea pig (male Hartley) whole brain without cerebellum, membrane homogenate
T1 sequence (H0V073 1-176): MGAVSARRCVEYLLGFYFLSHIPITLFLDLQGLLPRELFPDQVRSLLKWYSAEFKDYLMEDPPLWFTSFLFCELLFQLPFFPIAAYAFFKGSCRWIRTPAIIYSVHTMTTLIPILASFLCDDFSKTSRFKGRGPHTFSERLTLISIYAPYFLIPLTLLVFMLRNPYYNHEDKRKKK
Protocol: (§1) Sigma-1 and Sigma-2 Binding Assay Methods
(§2) Compounds of the present inventions were tested for selective binding to the sigma-1 receptor and sigma-2 receptor as modified from Chaki et al. Eur. J. Pharmacol. 1994, 251, R1. and Akunne et al., Neuropharmacology, 1997, 36(1), 51.
(§3) Tissue Homogenate Preparation for Sigma-1 Binding Assay and Sigma-2 Binding Assay
(§4) Male Hartley guinea pigs each weighing 300–400 g were used in sigma subtype binding assay. Guinea pigs were killed by decapitation and their whole brains (without cerebellum) were rapidly removed and homogenized in 25 volumes(W/V) of ice-cold 50 mM Tris-HCl buffer(pH 7.4 buffer for sigma-1 binding assay and pH 8.0 buffer for sigma-2 binding assay). The homogenate was centrifuged in 48,000×g for 10 min at 4° C. The supernatant was discarded and the resulting pellets were resuspended in the sane volume of buffer and recentrifuged as described above. The pellets were resuspended and washed twice more in the same manner as described above. The final pellets were resuspended in 10 volumes(W/V) of ice-cold 50 mM Tris-HCl buffer to enable distribution of 2 ml aliquot in microcentrifuge tube, which were used immediately or kept at −80° C. for no more than 1 month before use.
Sigma-2 Binding Assay([^3H]DTG)
The Sigma-2 selective binding assay was performed using 3.6 nM[^3H]DTG as the radioligand in the presence of 200 nM (+)-SKF10047 to block the Sigma-1 sites, with […] of guinea pig brain membranes in a total volume of 0.5 ml of 50 mM TRIS-HCl, pH8.0. Non-specific binding was determined in the presence of […]. Incubation condition and other manipulations were as described above for sigma-1 binding assay.
(§5) IC50 values for sigma-1 or -2 binding assay were calculated using KELL RADLIG v.6.0.5.

[2] = target: T2, sigma-1 receptor (Cavia porcellus, UniProt Q60492); assay: Sigma-1 binding assay ([3H](+)-pentazocine); settings: guinea pig brain membranes; for IC50: [3H](+)-pentazocine 2.4 nM, Table I; for inhibition at 0.01 µM: inhibition % at 10 nM, [3H](+)-pentazocine, Table II, read-out: Sigma 1 Inhib. %
T2 construct: their whole brains (without cerebellum) were rapidly removed and homogenized; from tissue; host or cells: guinea pig (male Hartley) whole brain without cerebellum, membrane homogenate
Protocol: as §1, §2, §3, §4
Sigma-1 Binding Assay ([^3H](+)pentazocine)
The sigma-1 selective binding assay was performed using [^3H](+)-pentazocine as the radioligand (2.4 nM final concentration unless otherwise specified) and approximately […] of guinea pig brain membranes in a final volume of […] of 50 mM TRISHCl, pH7.4. Non-specific binding was determined in the presence of […]. For the standard equilibrium assay, the mixtures were incubated for 2 hours at 25°, and rapidly filtered over Whatman GF/C glass fiber filters, followed by three 4.5 ml rinses with ice-cold incubation buffer. The filters were placed in counting vials and 4 ml scintillation solution. The vials were counted in a Beckman scintillation counter.
as §5

[3] = Inhibition % at 10 nM, [3H]DTG 3.6 nM, Table I
[4] = inhibition % at 10 nM, [3H]DTG, Table II

T2 sequence (Q60492 whole entry): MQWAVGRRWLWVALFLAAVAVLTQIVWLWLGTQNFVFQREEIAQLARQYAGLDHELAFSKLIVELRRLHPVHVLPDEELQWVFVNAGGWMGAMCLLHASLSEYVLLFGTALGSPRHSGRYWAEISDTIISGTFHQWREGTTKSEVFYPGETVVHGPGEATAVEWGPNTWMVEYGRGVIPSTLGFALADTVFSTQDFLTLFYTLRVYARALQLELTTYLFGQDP

| Compound | inhibition at 0.01 µM [1, 3] [%] | IC50 [2] [nM] | inhibition at 0.01 µM [1, 4] [%] | inhibition at 0.01 µM [2] [%] |
| --- | --- | --- | --- | --- |
| CC(C)(C)c1ccc(CC(N)CN2CCCCCC2)cc1 (stereo not shown) | 55.7 | 2.1 |  |  |
| NC(Cc1ccc(C(F)(F)F)cc1)CN1CCCCCC1 (stereo not shown) | 43.9 | 2 |  |  |
| NC(Cc1ccc(Cl)cc1)CN1CCCCCC1 (stereo not shown) | 36.8 | 13.9 |  |  |
| NC(Cc1ccc(Cl)c(Cl)c1)CN1CCCCCC1 (stereo not shown) | 12.5 | 12.1 |  |  |
| CN(C(=O)Cc1ccc(Cl)c(Cl)c1)C(Cc1ccc(C(C)(C)C)cc1)CN1CCCCCC1 (stereo not shown) | 51.4 | 35.7 |  |  |
| CNC(Cc1ccc(C(C)(C)C)cc1)CN1CCCCCC1 (stereo not shown) | 27.4 | 2.5 |  |  |
| CN(C)C(Cc1ccc(C(C)(C)C)cc1)CN1CCCCCC1 (stereo not shown) |  | 2.1 |  |  |
| CC(C)(C)c1ccc(CC(CN2CCCCCC2)NCc2ccccc2)cc1 (stereo not shown) |  | 10 |  |  |
| O=C(Cc1ccc(Cl)c(Cl)c1)NC(CCN1CCCCCC1)c1ccccc1 (stereo not shown) | 27.1 | 10.8 |  |  |
| Clc1ccc(CCNC(CCN2CCCCCC2)c2ccccc2)cc1Cl (stereo not shown) | 70.2 | 10.2 |  |  |
| NC(Cc1cccc(C(F)(F)F)c1)CN1CCCCCC1 (stereo not shown) |  |  | 31.3 | 42.9 |
| NC(Cc1c(Cl)cccc1Cl)CN1CCCCCC1 (stereo not shown) |  |  | 21.7 | 33.6 |
| NC(Cc1ccc(Cl)cc1Cl)CN1CCCCCC1 (stereo not shown) |  |  | 61 | 73.2 |
| NC(Cc1ccc(Cl)c(Cl)c1)CN1CCC(Cc2ccccc2)CC1 (stereo not shown) |  |  | 48.3 | 57.3 |
| O=CNC(Cc1ccc(Cl)c(Cl)c1)CN1CCC(Cc2ccccc2)CC1 (stereo not shown) |  |  | 39.9 | 71.9 |
| CC(C)(C)c1ccc(CC(N)CN2CCC(Cc3ccccc3)CC2)cc1 (stereo not shown) |  |  | 38.2 | 26.1 |
| CNC(Cc1ccc(Cl)c(Cl)c1)CN1CCC(Cc2ccccc2)CC1 (stereo not shown) |  |  | 72.7 | 66.1 |
| CC(C)(C)c1ccc(CC(CN2CCC(Cc3ccccc3)CC2)NC=O)cc1 (stereo not shown) |  |  | 6.1 | 52.7 |
| NC(Cc1ccc(Cl)cc1Cl)CN1CCC(Cc2ccccc2)CC1 (stereo not shown) |  |  | 48.3 | 56.9 |
| CNC(Cc1ccc(C(C)(C)C)cc1)CN1CCC(Cc2ccccc2)CC1 (stereo not shown) |  |  | 57.9 | 63.2 |
| O=CNC(Cc1ccc(Cl)cc1Cl)CN1CCC(Cc2ccccc2)CC1 (stereo not shown) |  |  | 24.3 | 74.5 |

| Compound | inhibition at 0.01 µM [1, 3] [%] | IC50 [2] [nM] | inhibition at 0.01 µM [1, 4] [%] | inhibition at 0.01 µM [2] [%] |
| --- | --- | --- | --- | --- |
| CNC(Cc1ccc(Cl)cc1Cl)CN1CCC(Cc2ccccc2)CC1 (stereo not shown) |  |  | 75 | 75.6 |
| O=CNC(Cc1ccc(Cl)c(Cl)c1)CN1CCCCCC1 (stereo not shown) |  |  | 37.8 | 67.7 |
| NC(Cc1ccc(Cl)cc1Cl)CN1CCC(C(=O)c2ccccc2)CC1 (stereo not shown) |  |  | 34.7 | 15.3 |
| NC(Cc1ccc(Cl)cc1)CN1CCC(C(=O)c2ccccc2)CC1 (stereo not shown) |  |  | 50 | 38.9 |
| N[C@H](Cc1ccccc1)CN1CCC(C(=O)c2ccccc2)CC1 |  |  | 16.9 | 11.2 |
| NC(Cc1ccccc1)CN1CCC(C(=O)c2ccccc2)CC1 (stereo not shown) |  |  | 34 | 33.6 |
| N[C@@H](Cc1ccccc1)CN1CCC(C(=O)c2ccccc2)CC1 |  |  | 33.3 | 39.8 |
| N[C@@H](Cc1ccccc1)CN1CCC(C(=O)Cc2ccccc2)CC1 |  |  | 21.4 | 43.1 |
| N[C@@H](Cc1ccccc1)CN1CCC(C(=O)c2ccc(Cl)cc2)CC1 |  |  | 53.6 | 61 |
| N[C@@H](Cc1ccccc1)CN1CCC(C(=O)c2ccc(F)cc2)CC1 |  |  | 61.1 | 66.7 |
| N[C@@H](Cc1ccccc1)CN1CCC(C(=O)c2ccc(Cl)c(Cl)c2)CC1 |  |  | 56.6 | 60.8 |
| NC(Cc1ccc(Cl)cc1)CN1CCC(C(=O)c2ccc(Cl)cc2)CC1 (stereo not shown) |  |  | 34.9 | 23.5 |
| NC(Cc1ccc(Cl)cc1)CN1CCC(C(=O)c2ccc(F)cc2)CC1 (stereo not shown) |  |  | 48.5 | 31.1 |
| NC(Cc1ccc(Cl)cc1)CN1CCC(C(=O)c2ccc(Cl)c(Cl)c2)CC1 (stereo not shown) |  |  | 51.7 | 24.7 |
| NC(Cc1ccc(Cl)c(Cl)c1)CN1CCC(C(=O)c2ccccc2)CC1 (stereo not shown) |  |  | 39.6 | 10.8 |
| NC(Cc1ccc(Cl)c(Cl)c1)CN1CCC(C(=O)c2ccc(Cl)c(Cl)c2)CC1 (stereo not shown) |  |  | 47.2 | 10.7 |
| COc1ccc(C(=O)C2CCN(C[C@@H](N)Cc3ccccc3)CC2)cc1 |  |  | 39.8 | 49.1 |
| COc1ccc(C(=O)C2CCN(CC(N)Cc3ccc(Cl)cc3)CC2)cc1 (stereo not shown) |  |  | 31 | 19.5 |
| N[C@@H](Cc1ccccc1)CN1CCC(C(=O)c2cccc(Cl)c2)CC1 |  |  | 73 | 82.9 |
| NC(Cc1ccc(Cl)cc1)CN1CCC(C(=O)c2cccc(Cl)c2)CC1 (stereo not shown) |  |  | 41.6 | 34.5 |
| CC(C)(C)c1ccc(C(=O)C2CCN(C[C@@H](N)Cc3ccccc3)CC2)cc1 |  |  | 43.1 | 66.2 |

| Compound | inhibition at 0.01 µM [1, 3] [%] | IC50 [2] [nM] | inhibition at 0.01 µM [1, 4] [%] | inhibition at 0.01 µM [2] [%] |
| --- | --- | --- | --- | --- |
| CC(C)(C)c1ccc(CC(N)CN2CCC(C(=O)c3ccccc3)CC2)cc1 (stereo not shown) |  |  | 30 | 47.4 |
| NC(CCN1CCC(Cc2ccccc2)CC1)c1ccccc1 (stereo not shown) |  |  | 39.7 | 25.5 |
| NC(CCCN1CCCCCC1)c1ccccc1 (stereo not shown) |  |  | 21.6 | 7.1 |
| NC(CCCCN1CCCCCC1)c1ccccc1 (stereo not shown) |  |  | 32.5 | 9.3 |
| Clc1ccc(CCNC(CCN2CCC(Cc3ccccc3)CC2)c2ccccc2)cc1Cl (stereo not shown) |  |  | 22.6 | 28.8 |
| O=CNC(CCN1CCC(Cc2ccccc2)CC1)c1ccccc1 (stereo not shown) |  |  | 26.3 | 28.2 |
| CNC(CCN1CCC(Cc2ccccc2)CC1)c1ccccc1 (stereo not shown) |  |  | 54.1 | 36.3 |
| CN(C=O)C(CCN1CCC(Cc2ccccc2)CC1)c1ccccc1 (stereo not shown) |  |  | 26.4 | -2 |
| CN(C)C(CCN1CCC(Cc2ccccc2)CC1)c1ccccc1 (stereo not shown) |  |  | 57.7 | 20.3 |
| O=S(=O)(NC(CCN1CCC(Cc2ccccc2)CC1)c1ccccc1)c1ccccc1 (stereo not shown) |  |  | 11.4 | 35.6 |
| O=[N+]([O-])c1ccc(S(=O)(=O)NC(CCN2CCC(Cc3ccccc3)CC2)c2ccccc2)c([N+](=O)[O-])c1 (stereo not shown) |  |  | 40.6 | 5.7 |
| O=[N+]([O-])c1cccc(S(=O)(=O)NC(CCN2CCC(Cc3ccccc3)CC2)c2ccccc2)c1 (stereo not shown) |  |  | 25.7 | 45.7 |
| O=[N+]([O-])c1ccccc1S(=O)(=O)NC(CCN1CCC(Cc2ccccc2)CC1)c1ccccc1 (stereo not shown) |  |  | 3.1 | 31.6 |
| O=C(NC(CCN1CCC(Cc2ccccc2)CC1)c1ccccc1)c1ccccc1 (stereo not shown) |  |  | 5.2 | 44.3 |
| NC(CCN1CCC(C(=O)c2ccccc2)CC1)c1ccccc1 (stereo not shown) |  |  | 48.3 | 13.7 |
| NC(CCN1CCC(C(=O)c2ccc(F)cc2)CC1)c1ccccc1 (stereo not shown) |  |  | 57.3 | -1.9 |
| NC(CCN1CCC(C(=O)Cc2ccccc2)CC1)c1ccccc1 (stereo not shown) |  |  | 28.7 | 2.2 |
| CC(C)(C)c1ccc(CC(N)CCN2CCC(Cc3ccccc3)CC2)cc1 (stereo not shown) |  |  | 24.3 | 3.7 |
| CNC(CCN1CCC(C(=O)c2ccc(F)cc2)CC1)c1ccccc1 (stereo not shown) |  |  | 50.5 | 25.2 |
| COc1ccc(C(=O)C2CCN(CCC(N)c3ccccc3)CC2)cc1 (stereo not shown) |  |  | 30.9 | 3.2 |
| NC(CCN1CCC(C(=O)c2ccc(Cl)cc2)CC1)c1ccccc1 (stereo not shown) |  |  | 43.7 | 7.9 |
